{"source": "patent US20020107193A1", "about": "“Therapeutic uses for IP3 receptor-mediated calcium channel modulators” (priority 2000, published 2002)", "key": {"[1]": {"test_system": "IP3 receptor", "settings": "Gafni et al., 1997; cited from earlier work"}, "[2]": {"test_system": "NF-κB", "test": "EMSA of NF-κB binding activity in cultured primary cortical neurons", "format": "cell-based, rat", "method": "Cerebral cortices were removed from embryonic day 18 Sprague-Dawley rats (Harlan, Indianapolis, Ind.). Cells were dissociated as described previously (Mattson et al., 1995, J. Neurochem. 65:1740-1751.) and were seeded into polyethyleneimine-coated 60 mm culture dishes containing Eagle's Minimum Essential Medium supplemented with 26 mM NaHCO3, 40 mM glucose, 20 mM KCl, 1 mM sodium pyruvate, 10% (v/v) heat-inactivated fetal bovine serum (Sigma, St. Louis, Mo.), and 0.001% gentamycin sulfate. After a 3-5 h incubation period to allow for cell attachment, the medium was replaced with 2 ml of Neurobasal Medium with B27 supplements (GIBCO Life Technologies, Grand Island, N.Y.). […] Experimental treatments were performed on 7-to-9-day-old neuronal cultures in which there were approximately 5% contaminating glial cells.\nTotal cell extracts were prepared as described (Baeuerle and Baltimore, 1988, Cell 53:211-217). Briefly, cells were harvested, washed twice with ice-cold PBS and lysed for 30 min at 4° C. in Totex buffer (20 mM HEPES, pH 7.9, 350 mM NaC1, 20% glycerol, 1% NP-40, 1 mM MgC12, 0.5 mM EDTA, 0.1 mM EGTA, 5 mM DTT, 0.1% PMSF, 1% aprotinin, 4 μg/ml leupeptin). Samples were centrifuged at 14,000× g for 10 min and aliquots of supernatant were collected and stored at −70° C. until taken for assay. The protein content of the extract (supernatant) was measured by Bradford method (BIO-RAD Laboratories, Ercules, Calif., USA).\nAfter 20 min at room temperature, reaction products were separated on a 7% non-denaturing polyacrylamide gel. Competition experiments were performed by incubating extracts with labeled oligonucleotide probe in the presence of 100-fold molar excess unlabeled NF-KB or CREB oligonucleotide. To characterize the NF-KB complexes, supershift assays were performed. Extracts were preincubated for 45 min at room temperature with antibodies recognizing either p50 or p65 sub-units of NF-κB (Santa Cruz Biotechnology, Santa Cruz, Calif.) or c-Fos (Oncogene Research Products, Cambridge, Mass.). The mixtures were further incubated with ^32P-labeled probe and resolved as described above. Radioactivity of dried gels was detected by exposure to Kodak X-Omat film and images on the developed film were scanned into a computer using a UMAX 1200s scanner. Densitometry was performed using Scion Image software (Scion Inc., Frederick, Md.). Paint Shop Pro software (JASC Inc. Minneapolis, Minn.) was used for preparation of the final figures.\nThe possible involvement of endoplasmic reticulum pools of intracellular calcium regulated by IP3 receptors in controlling basal levels of NF-κB was investigated using Xestospongin C (XeC) a specific membrane permeable modulator of IP3-mediated Ca^2+release (Gafni et al., 1997, Neuron 19:723-733; Hu et al., 1999, J. Biol. Chem. 274:33995-33998), and thapsigargin (Tg), a specific inhibitor of ER calcium/ATPase (Thastrup et al., 1990, Proc. Natl. Acad. Sci. USA 87:2466-2470; Davidson and Varhol, 1995, J. Biol. Chem. 270:11731-11734.). Cultured primary cortical neurons were treated with either 1 μM XeC, 100 nM Tg or vehicle for 6 h and protein extracts were analyzed for NF-κB binding activity by EMSA electrophoresis."}, "[3]": {"test_system": "cardiac cells", "settings": "Hu et al., 1999, cited from earlier work"}, "[4]": {"test_system": "[Ca^2+]i", "test": "Intracellular calcium increase caused by glutamate in neurons", "format": "cell-based", "settings": "XeC treatment; data not shown", "excerpt": "Therefore, all inducers of NFκB tested here have in common the ability to initiate calcium release through ER IP3 receptors, either through increasing intracellular calcium, activating production of IP3, or both."}, "[5]": {"test_system": "IP3 receptors on microsomes", "test": "Microsome extract (MSE) effect on cytoplasmic NF-κB binding activity", "format": "biochemical, rat", "method": "Cerebral cortices from adult female Sprague-Dawley rats were homogenized (20 strokes at 300 rpm) with a Teflon homogenizer in ice-cold buffer containing 1 mM EDTA, 0.32 M sucrose, 0.1 mM dithiothreitol and 1 mM HEPES as described previously (Chen et al., 1998, Diabetes 47:874-81) and cytoplasmic and microsome fractions were isolated by differential centrifugation. Briefly, tissue fragments and cellular debris were removed by centrifugation at 500 g for 10 min and supernatants were centrifuged at 20,000 g for 20 min to pellet intact mitochondria and nuclei. The supernatant was then centrifuged at 100,000 g for 1 h in order to obtain the cytoplasmic fraction and the microsomal pellet enriched in endoplasmic reticulum and golgi membranes. Microsome extracts (MSE) were prepared by suspending microsomes in 1:100 v/v ice-cold buffer and centrifuging at 100,000× g for 1 hr. Microsomes were then re-suspended in 1:2 v/v volume buffer and treated as described below. At the end of the treatment, the suspension was centrifuged at 100,000 g for 1 h, and supernatants were used as MSE. For experiments involving incubation of MSE with cytoplasmic extract, 3 μl of MSE were added to 10 μl cytoplasmic extract and mixtures were incubated at room temperature for 1 h.\n[…] After 1 h at room temperature, samples were examined for NF-κB binding activity.\nIndeed, the role calcium plays in this paradigm seems to be as an intraluminal signal."}}, "note": "“Also recorded” adds a separate entry of the source.", "data": [{"smiles": "C1CCC[C@H]2CCCN3CC[C@@H](CCCCCC[C@@H]4CCCN5CC[C@@H](CC1)O[C@@H]45)O[C@@H]23", "note": "[XeC, Xestospongin C]", "values": [{"measurement": "block of IP3-mediated calcium release", "setting": "[1]", "value": "potent blockers"}, {"measurement": "effect on TNFα-induced NF-κB activation", "setting": "[2]; 1 μM XeC 30 min prior to 100 ng/ml TNFα for 6 h", "value": "completely abolished; also recorded: significantly inhibited"}, {"measurement": "effect on thapsigargin-induced elevation in NF-κB binding", "setting": "[2]; 1 μM XeC pretreatment, 100 nM Tg, 6 h", "value": "completely abolished the elevation"}, {"measurement": "effect on glutamate-induced elevation in NF-κB binding", "setting": "[2]; 1 μM XeC pretreatment, 20 μM glutamate, 6 h", "value": "completely abolished the elevation; also recorded: NF-κB binding below that of control; also recorded: totally abolish this induction"}, {"measurement": "basal NF-κB binding activity relative to control levels", "setting": "[2]; cultured primary cortical neurons, 6 h, 1 μM XeC or 100 nM Tg, EMSA", "value": "statistically significant (p<0.05) reduction; also recorded: can inhibit basal levels of NF-κB binding"}, {"measurement": "frequency of calcium oscillations", "setting": "[3]", "value": "decreased the frequency"}, {"measurement": "NF-κB activity", "setting": "[3]; histamine stimulation", "value": "parallel decrease"}, {"measurement": "increase in [Ca^2+]i caused by glutamate", "setting": "[4]", "value": "did not erase the increase"}, {"measurement": "NF-κB stimulating activity of microsomes pretreated then given calcium", "setting": "[5]; XeC pretreatment followed by calcium", "value": "produced no NF-κB stimulating activity"}, {"measurement": "effect of microsome pretreatment on IP3-induced NF-κB stimulating properties of MSE", "setting": "[5]; XeC pretreatment of microsomes", "value": "completely abolished this effect"}]}]}
